Assay results published in ChEMBL document CHEMBL1201862, “PubChem BioAssay data set” (2004).
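Grown in 96-well plates, cells were treated for 48 hours with each compound at five concentrations. Insufficient inhibition: endpoint recorded as highest concentration tested. Abbreviation: GI50, concentration required for 50% inhibition of growth.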 Calls of active or inactive are those of the source. Cut-off read from the data, not from the text of the source: active = GI50 up to about 1.1 µM and inactive = higher.

Tests used:
Assay in all cases: growth of human tumour cells (NCI), 48 h
DMS-273 = system: DMS-273
DMS-114 = system: DMS-114
KM-20L2 = system: KM-20L2
XF498 = system: XF498
M19-MEL = system: M19-MEL
LXFL 529 = system: LXFL 529
HOP-18 = system: HOP-18
SNB-78 = system: SNB-78
RXF 631 = system: RXF 631

Measured: GI50

CC(=O)O/N=C/c1cc2c(cc1Br)OCO2
inactive: DMS-273 > 349 µM | DMS-114 > 349 µM | KM-20L2 > 349 µM | XF498 > 349 µM | M19-MEL > 349 µM | LXFL 529 > 349 µM

Cc1ccc(NC(=O)/C(C#N)=C/c2ccccc2)c(C)c1
inactive: DMS-273 > 100 µM | DMS-114 > 100 µM | KM-20L2 > 100 µM | HOP-18 > 100 µM | XF498 > 100 µM | M19-MEL > 100 µM | SNB-78 > 100 µM | LXFL 529 > 100 µM

N#C/C(=N\c1ccccc1N(C(=O)c1ccccc1)C(=O)c1ccccc1)c1ccccc1
inactive: DMS-273 3.83 µM | DMS-114 4.63 µM | KM-20L2 9.71 µM | HOP-18 > 40.4 µM | XF498 7.8 µM | M19-MEL > 100 µM | SNB-78 > 91 µM | LXFL 529 41 µM

COc1ccc2c(c1)[n+]([O-])c(C(=O)C/C(=N\NC(=O)C[N+](C)(C)C)C(=O)Nc1cc(Cl)ccc1Cl)c(C)[n+]2[O-]
inactive: DMS-273 > 100 µM | HOP-18 > 100 µM | M19-MEL > 100 µM | SNB-78 > 100 µM | LXFL 529 > 100 µM

O=C(O)CCSCCCN1C(=O)c2ccccc2C1=O
inactive: DMS-114 > 100 µM | KM-20L2 > 100 µM | M19-MEL > 100 µM | SNB-78 > 100 µM | LXFL 529 > 100 µM

COc1ccc(-c2cc(C(=O)Nc3cccc(C(F)(F)F)c3)nc(S)n2)cc1
inactive: DMS-273 > 100 µM | DMS-114 > 100 µM | KM-20L2 > 100 µM | HOP-18 > 100 µM | XF498 > 100 µM | M19-MEL > 100 µM | SNB-78 > 100 µM | LXFL 529 > 100 µM

CCCCCCCC(=O)OCC(COC(=O)C(C)(C)C)OC(=O)Cc1ccccc1 (centres undefined)
inactive: DMS-273 > 100 µM | DMS-114 > 100 µM | KM-20L2 > 100 µM | HOP-18 > 100 µM | M19-MEL > 100 µM | LXFL 529 > 100 µM

Cc1cc(Cl)ccc1NC(=O)C1C(=O)C(=O)N(c2ccc(Cl)cc2C)C1=O (centres undefined)
inactive: RXF 631 68.2 µM | DMS-273 > 100 µM | DMS-114 25.1 µM | KM-20L2 48.3 µM | M19-MEL > 100 µM | SNB-78 76 µM | LXFL 529 48.3 µM

NC(CO)c1ccc(OCc2ccccc2)cc1 (centres undefined)
inactive: DMS-273 > 100 µM | DMS-114 > 100 µM | KM-20L2 > 100 µM | HOP-18 > 100 µM | XF498 76.9 µM | M19-MEL > 100 µM | SNB-78 > 100 µM | LXFL 529 > 100 µM

CCCCCCCC/C=C\CCCCCCCC(=O)NCCN(CCN)C(=O)CCCCCCC/C=C\CCCCCCCC
inactive: DMS-273 > 100 µM | DMS-114 > 100 µM | KM-20L2 > 100 µM | HOP-18 > 100 µM | M19-MEL > 100 µM | LXFL 529 > 100 µM

CCCCCCCCOCC(O)COC(C)C (centres undefined)
inactive: DMS-273 16.7 µM | KM-20L2 85.1 µM | HOP-18 > 100 µM | M19-MEL 45.5 µM | LXFL 529 93.8 µM

CCC12CCCNC1c1c(n(C)c3ccccc13)C(C(=O)OC)C2 (centres undefined)
inactive: DMS-273 68.7 µM | DMS-114 18.5 µM | KM-20L2 44.3 µM | XF498 51.6 µM | M19-MEL 68.4 µM | LXFL 529 80.2 µM

CC(=O)O[C@H]1CC[C@@]2(C)C(=CC[C@@H]3C2CC[C@]2(C)Nc4c(cnn4-c4ccccc4)CC32)C1 (some centres undefined)
inactive: DMS-273 4.24 µM | DMS-114 37.1 µM | KM-20L2 3.78 µM | XF498 25.7 µM | M19-MEL 34.2 µM | SNB-78 14.4 µM | LXFL 529 17.9 µM

COc1c2c(c3c(c1C1OC(C)[C@@H](C)O1)CC(C)(C)O3)C(=O)c1ccccc1C2=O (some centres undefined)
inactive: RXF 631 9.91 µM | DMS-273 24.2 µM | DMS-114 37.4 µM | KM-20L2 29.2 µM | XF498 41 µM | M19-MEL 36.7 µM | SNB-78 > 100 µM | LXFL 529 23.1 µM

CCOc1ccc2c(c1)[n+]([O-])c(-c1ccccc1Cl)c(N)[n+]2[O-]
inactive: RXF 631 > 100 µM | DMS-273 > 100 µM | DMS-114 > 100 µM | KM-20L2 > 100 µM | HOP-18 > 100 µM | XF498 > 100 µM | M19-MEL > 100 µM | SNB-78 > 100 µM | LXFL 529 > 100 µM

COc1cc2c3c(c1OC)-c1ccccc1C(C(O)c1ccccc1)C3N(C)CC2 (centres undefined)
inactive: RXF 631 22.2 µM | DMS-273 25.5 µM | DMS-114 17.6 µM | KM-20L2 20.1 µM | HOP-18 82.8 µM | XF498 19.1 µM | M19-MEL 27.8 µM | SNB-78 65.9 µM | LXFL 529 29.6 µM

O=C1NC2C=CN(Cc3ccccc3)C=C2C(=O)N2CCCC12 (centres undefined)
inactive: RXF 631 > 100 µM | DMS-273 > 100 µM | DMS-114 > 100 µM | KM-20L2 > 100 µM | HOP-18 > 100 µM | XF498 > 100 µM | M19-MEL > 100 µM | SNB-78 > 100 µM | LXFL 529 > 100 µM

CN(C)CCc1ccc(Cl)cc1Cl
inactive: RXF 631 > 100 µM | DMS-114 > 100 µM | KM-20L2 > 100 µM | HOP-18 > 100 µM | XF498 > 100 µM | M19-MEL > 100 µM | LXFL 529 > 100 µM

COc1cc2cc3c4c(cc(OC)c(OC)c4c2cc1OC)CCN3C(=O)CCC(=O)O
inactive: DMS-273 > 100 µM | DMS-114 > 100 µM | KM-20L2 > 100 µM | SNB-78 > 100 µM | LXFL 529 > 100 µM

C=C1c2ccccc2N(S(=O)(=O)c2ccc(C)cc2)C12CCCCC2
inactive: DMS-273 45 µM | DMS-114 18.9 µM | KM-20L2 > 100 µM | HOP-18 > 100 µM | XF498 > 100 µM | M19-MEL 47.1 µM | LXFL 529 37.2 µM

O=C(O)c1c2c(cc3c(=O)cc(-c4ccccc4)oc13)CCCC2
inactive: RXF 631 > 100 µM | DMS-273 > 100 µM | KM-20L2 > 100 µM | XF498 > 100 µM | SNB-78 > 100 µM | LXFL 529 > 100 µM

O=C(O)c1cc2ccc(Cl)cc2c(O)c1C1=CCCCC1
inactive: RXF 631 32.1 µM | DMS-273 20 µM | DMS-114 24.8 µM | KM-20L2 51.6 µM | HOP-18 60.5 µM | XF498 18.7 µM | M19-MEL 35.8 µM | SNB-78 27.4 µM | LXFL 529 35.3 µM
